Assay results published in PubChem BioAssay AID2060609 (Molecular Pharmacology Branch, DTP, NCI, 2025).

Test system: 855422-203-R-J1-PDC complex spheroids, viability
Test: Anticancer human tumor 855422-203-R-J1-PDC patient-derived bladder carcinoma cell line growth inhibition [CLK]
Conditions: for IC50: curve of first compound; for viability, T/C: stronger effect = lower value
Summary of the method: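 Patient-derived tumor cells grown as complex spheroids with HUVEC endothelial cells and mesenchymal stem cells, treated with drug combinations. Concentrations descend in half-log steps from near clinical Cmax, or from 10 microM if Cmax unknown.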

[1] = second compound 0.0316 µM, first compound 0.0316 µM
[2] = second compound 0.0316 µM, first compound 0.1 µM
[3] = second compound 0.0316 µM, first compound 0.316 µM
[4] = second compound 0.0316 µM, first compound 1 µM
[5] = second compound 0.0316 µM, first compound 3.16 µM
[6] = second compound 0.0316 µM, first compound 10 µM
[7] = second compound 0.1 µM, first compound 0.0316 µM
[8] = second compound 0.1 µM, first compound 0.1 µM
[9] = second compound 0.1 µM, first compound 0.316 µM
[10] = second compound 0.1 µM, first compound 1 µM
[11] = second compound 0.1 µM, first compound 3.16 µM
[12] = second compound 0.1 µM, first compound 10 µM
[13] = second compound 0.316 µM, first compound 0.0316 µM
[14] = second compound 0.316 µM, first compound 0.1 µM
[15] = second compound 0.316 µM, first compound 0.316 µM
[16] = second compound 0.316 µM, first compound 1 µM
[17] = second compound 0.316 µM, first compound 3.16 µM
[18] = second compound 0.316 µM, first compound 10 µM
[19] = second compound 1 µM, first compound 0.0316 µM
[20] = second compound 1 µM, first compound 0.1 µM
[21] = second compound 1 µM, first compound 0.316 µM
[22] = second compound 1 µM, first compound 1 µM
[23] = second compound 1 µM, first compound 3.16 µM
[24] = second compound 1 µM, first compound 10 µM
[25] = second compound 3.16 µM, first compound 0.0316 µM
[26] = second compound 3.16 µM, first compound 0.1 µM
[27] = second compound 3.16 µM, first compound 0.316 µM
[28] = second compound 3.16 µM, first compound 1 µM
[29] = second compound 3.16 µM, first compound 3.16 µM
[30] = second compound 3.16 µM, first compound 10 µM
[31] = second compound 10 µM, first compound 0.0316 µM
[32] = second compound 10 µM, first compound 0.1 µM
[33] = second compound 10 µM, first compound 0.316 µM
[34] = second compound 10 µM, first compound 1 µM
[35] = second compound 10 µM, first compound 3.16 µM
[36] = second compound 10 µM, first compound 10 µM
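Also: spheroids exposed to drugs for seven days before readout.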
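For viability, T/C in this document: 100% = DMSO vehicle control wells.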

SMILES: CC(C)CC(NC(=O)C(Cc1ccccc1)NC(=O)c1cnccn1)B(O)O (stereo unspecified) + CN1CCN(c2cc(C(=O)Nc3cc4cc(-c5cnn(C)c5)ccc4cn3)ccn2)CC1
- IC50 (second compound 0.0316 µM): < 0.000949 µM
- IC50 (second compound 0.1 µM): < 0.000949 µM
- IC50 (second compound 0.316 µM): < 0.000949 µM
- IC50 (second compound 1 µM): < 0.000949 µM
- IC50 (second compound 3.16 µM): < 0.000949 µM
- IC50 (second compound 10 µM): < 0.000949 µM
- viability, T/C (second compound 0.0316 µM, first compound 0.000949 µM): 2.28%
- viability, T/C (second compound 0.0316 µM, first compound 0.003 µM): 0.31%
- viability, T/C (second compound 0.0316 µM, first compound 0.00949 µM): 0.27%
- viability, T/C (second compound 0.0316 µM, first compound 0.03 µM): 0.43%
- viability, T/C (second compound 0.0316 µM, first compound 0.0949 µM): 0.41%
- viability, T/C (second compound 0.0316 µM, first compound 0.3 µM): 0.27%
- viability, T/C (second compound 0.1 µM, first compound 0.000949 µM): 2.61%
- viability, T/C (second compound 0.1 µM, first compound 0.003 µM): 0.37%
- viability, T/C (second compound 0.1 µM, first compound 0.00949 µM): 0.29%
- viability, T/C (second compound 0.1 µM, first compound 0.03 µM): 0.43%
- viability, T/C (second compound 0.1 µM, first compound 0.0949 µM): 0.35%
- viability, T/C (second compound 0.1 µM, first compound 0.3 µM): 0.28%
- viability, T/C (second compound 0.316 µM, first compound 0.000949 µM): 0.57%
- viability, T/C (second compound 0.316 µM, first compound 0.003 µM): 0.22%
- viability, T/C (second compound 0.316 µM, first compound 0.00949 µM): 0.27%
- viability, T/C (second compound 0.316 µM, first compound 0.03 µM): 0.27%
- viability, T/C (second compound 0.316 µM, first compound 0.0949 µM): 1.06%
- viability, T/C (second compound 0.316 µM, first compound 0.3 µM): 0.19%
- viability, T/C (second compound 1 µM, first compound 0.000949 µM): 0.21%
- viability, T/C (second compound 1 µM, first compound 0.003 µM): 0.19%
- viability, T/C (second compound 1 µM, first compound 0.00949 µM): 0.12%
- viability, T/C (second compound 1 µM, first compound 0.03 µM): 0.19%
- viability, T/C (second compound 1 µM, first compound 0.0949 µM): 0.16%
- viability, T/C (second compound 1 µM, first compound 0.3 µM): 0.16%
- viability, T/C (second compound 3.16 µM, first compound 0.000949 µM): 0.36%
- viability, T/C (second compound 3.16 µM, first compound 0.003 µM): 0.15%
- viability, T/C (second compound 3.16 µM, first compound 0.00949 µM): 1.95%
- viability, T/C (second compound 3.16 µM, first compound 0.03 µM): 0.11%
- viability, T/C (second compound 3.16 µM, first compound 0.0949 µM): 0.78%
- viability, T/C (second compound 3.16 µM, first compound 0.3 µM): 0.11%
- viability, T/C (second compound 10 µM, first compound 0.000949 µM): 0.29%
- viability, T/C (second compound 10 µM, first compound 0.003 µM): 0.19%
- viability, T/C (second compound 10 µM, first compound 0.00949 µM): 2.1%
- viability, T/C (second compound 10 µM, first compound 0.03 µM): 0.2%
- viability, T/C (second compound 10 µM, first compound 0.0949 µM): 0.22%
- viability, T/C (second compound 10 µM, first compound 0.3 µM): 0.32%

SMILES: CC1(C)CCC(CN2CCN(c3ccc(C(=O)NS(=O)(=O)c4ccc(NCC5CCOCC5)c([N+](=O)[O-])c4)c(Oc4cnc5[nH]ccc5c4)c3)CC2)=C(c2ccc(Cl)cc2)C1 + CN1CCN(c2cc(C(=O)Nc3cc4cc(-c5cnn(C)c5)ccc4cn3)ccn2)CC1
- IC50 (second compound 0.0316 µM): 6.06 µM
- IC50 (second compound 0.1 µM): 5.32 µM
- IC50 (second compound 0.316 µM): < 0.0316 µM
- IC50 (second compound 1 µM): < 0.0316 µM
- IC50 (second compound 3.16 µM): < 0.0316 µM
- IC50 (second compound 10 µM): < 0.0316 µM
- viability, T/C [1]: 97.3%
- viability, T/C [2]: 96.2%
- viability, T/C [3]: 115%
- viability, T/C [4]: 116%
- viability, T/C [5]: 137%
- viability, T/C [6]: 1.97%
- viability, T/C [7]: 85.1%
- viability, T/C [8]: 81.9%
- viability, T/C [9]: 104%
- viability, T/C [10]: 88.2%
- viability, T/C [11]: 93%
- viability, T/C [12]: 1.08%
- viability, T/C [13]: 10.7%
- viability, T/C [14]: 11.8%
- viability, T/C [15]: 8.68%
- viability, T/C [16]: 10.2%
- viability, T/C [17]: 10.3%
- viability, T/C [18]: 0.47%
- viability, T/C [19]: 0.26%
- viability, T/C [20]: 0.89%
- viability, T/C [21]: 0.24%
- viability, T/C [22]: 0.46%
- viability, T/C [23]: 0.51%
- viability, T/C [24]: 0.11%
- viability, T/C [25]: 0.63%
- viability, T/C [26]: 2.77%
- viability, T/C [27]: 0.71%
- viability, T/C [28]: 0.87%
- viability, T/C [29]: 1.82%
- viability, T/C [30]: 1.58%
- viability, T/C [31]: 0.52%
- viability, T/C [32]: 0.31%
- viability, T/C [33]: 0.36%
- viability, T/C [34]: 0.45%
- viability, T/C [35]: 0.29%
- viability, T/C [36]: 0.25%

SMILES: CC1COCCN1c1cc(C2(S(C)(=N)=O)CC2)nc(-c2ccnc3[nH]ccc23)n1 (stereo unspecified) + CN1CCN(c2cc(C(=O)Nc3cc4cc(-c5cnn(C)c5)ccc4cn3)ccn2)CC1
- IC50 (second compound 0.0316 µM): 2.25 µM
- IC50 (second compound 0.1 µM): 1.85 µM
- IC50 (second compound 0.316 µM): < 0.0316 µM
- IC50 (second compound 1 µM): < 0.0316 µM
- IC50 (second compound 3.16 µM): < 0.0316 µM
- IC50 (second compound 10 µM): < 0.0316 µM
- viability, T/C [1]: 103%
- viability, T/C [2]: 117%
- viability, T/C [3]: 89.6%
- viability, T/C [4]: 93%
- viability, T/C [5]: 32%
- viability, T/C [6]: 10.6%
- viability, T/C [7]: 70.6%
- viability, T/C [8]: 91%
- viability, T/C [9]: 80.3%
- viability, T/C [10]: 80.1%
- viability, T/C [11]: 24%
- viability, T/C [12]: 12.2%
- viability, T/C [13]: 9.48%
- viability, T/C [14]: 14%
- viability, T/C [15]: 7.7%
- viability, T/C [16]: 6%
- viability, T/C [17]: 5.18%
- viability, T/C [18]: 3.25%
- viability, T/C [19]: 0.34%
- viability, T/C [20]: 0.27%
- viability, T/C [21]: 1.14%
- viability, T/C [22]: 0.17%
- viability, T/C [23]: 0.14%
- viability, T/C [24]: 0.19%
- viability, T/C [25]: 0.75%
- viability, T/C [26]: 0.61%
- viability, T/C [27]: 0.62%
- viability, T/C [28]: 0.51%
- viability, T/C [29]: 0.85%
- viability, T/C [30]: 0.37%
- viability, T/C [31]: 0.44%
- viability, T/C [32]: 0.31%
- viability, T/C [33]: 0.9%
- viability, T/C [34]: 0.36%
- viability, T/C [35]: 1.72%
- viability, T/C [36]: 0.63%
